ChEMBL document CHEMBL5120889, “Dolabrane-Type Diterpenoids with Immunosuppressive Activity from Koilodepas hainanense” (J Nat Prod, 2022)

How the values were obtained:
[1] = Immunosuppressive activity in BALB/c mouse splenocytes assessed as reduction in ConA-induced mouse T-lymphocytes proliferation incubated for 8 hrs by beta scintillation counting based [3H]thymidine incorporation assay; type: functional; conditions: T-cell
[2] = Selectivity index, ratio of CC50 for cytotoxicity in BALB/c mouse splenocytes to IC50 for immunosuppressive activity in BALB/c mouse splenocytes assessed as reduction in ConA-induced mouse T-lymphocytes proliferation; type: toxicity, cell-based; conditions: read-out: Ratio CC50/IC50
[3] = Cytotoxicity in BALB/c mouse Splenocyte assessed as reduction in cell viability incubated for 48 hrs by MTT assay; type: toxicity, cell-based; conditions: splenocytes
[4] = Selectivity index, ratio of CC50 for cytotoxicity in BALB/c mouse splenocytes to IC50 for immunosuppressive activity in BALB/c mouse splenocytes assessed as reduction in LPS-induced mouse B-lymphocytes proliferation; type: toxicity, cell-based; conditions: read-out: Ratio CC50/IC50
B-cell line = assay: Immunosuppressive activity in BALB/c mouse splenocytes assessed as reduction in LPS-induced mouse B-lymphocytes proliferation incubated for 8 hrs by beta scintillation counting based [3H]thymidine incorporation assay; type: functional

Row | SMILES | IC50 [1] [µM] | selectivity ratio [2] | CC50 at 48 h [3] [µM] | selectivity ratio [4] | IC50 (B-cell line; read-out: IC50) [µM] | IC50 (B-cell line) [µM]
1 | CC1=C(O)C(=O)C[C@@H]2[C@@]3(C)CC[C@](C)(C(=O)O)C[C@@H]3CC[C@]12C | 3.41 | 1.9 | 6.46 | 2.1 | 3.05 | 
2 | C/C=C/C[C@@H](C)[C@@H](O)[C@H]1C(=O)N[C@@H](CC)C(=O)N(C)CC(=O)N(C)[C@@H](CC(C)C)C(=O)N[C@@H](C(C)C)C(=O)N(C)[C@@H](CC(C)C)C(=O)N[C@@H](C)C(=O)N[C@H](C)C(=O)N(C)[C@@H](CC(C)C)C(=O)N(C)[C@@H](CC(C)C)C(=O)N(C)[C@@H](C(C)C)C(=O)N1C [CYCLOSPORINE] |  |  |  |  |  | 0.74
3 | C[C@@H]1C(=O)CC[C@@H]2[C@@]3(C)CC[C@](C)([C@@H](O)CO)C[C@@H]3CC[C@]21C | 23.9 | 1 | 24.2 | 2.4 | 10.2 | 
4 | CC1=CC(=O)C[C@@H]2[C@@]3(C)CC[C@](C)(O)C[C@@H]3CC[C@@]12C | 3.11 | 4.2 | 13.2 | 5.9 | 2.24 | 
